Results from patent US6906081B2, “Use of dual H3/M2 antagonists in the treatment of cognition deficit disorders” (Schering Corporation, priority 2001, dated 2005).

How the values were obtained:
H3 receptor = biological target: T1, H3 receptor (Cavia porcellus, UniProt Q9JI35); assay: H3 receptor binding, displacement of radiolabeled Nα-methylhistamine from guinea pig brain membranes; conditions: affinity for the H3 receptor
T1 construct: from tissue; host or cells: guinea pig brain membranes
Excerpt: Compounds can readily be evaluated to determine activity at H3 receptors by known methods, including the guinea pig brain membrane assay and the guinea pig neurogenic ileum contraction assay, both of which are described in U.S. Pat. No. 5,352,707. Another useful assay utilizes rat brain membranes and is described by West et al., “Identification of Two H3-Histamine Receptor Subtypes,” Molecular Pharmacology, Vol. 38, pages 610-613 (1990).
A particularly useful screening assay measures binding to sites in guinea pig brain membranes. This test is described in detail by Korte et al., “Characterization and Tissue Distribution of H3 Histamine Receptors in Guinea Pigs by N^α-Methylhistamine,” in Biochemical and Biophysical Research Communications, Vol. 168, pages 979-986 (1990), and quantifies the displacement of bound radiolabeled N^α-methylhistamine from tissues by candidate compounds. Results are expressed as “Ki” values, in nanoMolar (nM) units, which values can be considered as being dissociation constants for the H3 antagonist on the H3 receptor system, or an index of antagonist affinity for the receptor. In general, Ki values less than about 200 nM are considered necessary for an agent to be useful as an H3 antagonist in the invention.

[1] = biological target: T2, cloned human m2 muscarinic receptor (Homo sapiens, UniProt P08172); assay: Binding to cloned human m2 muscarinic receptor (3H-QNB, CHO cell membranes); conditions: affinity for the m2 receptor; 3H-QNB displacement
T2 sequence (P08172 1-466): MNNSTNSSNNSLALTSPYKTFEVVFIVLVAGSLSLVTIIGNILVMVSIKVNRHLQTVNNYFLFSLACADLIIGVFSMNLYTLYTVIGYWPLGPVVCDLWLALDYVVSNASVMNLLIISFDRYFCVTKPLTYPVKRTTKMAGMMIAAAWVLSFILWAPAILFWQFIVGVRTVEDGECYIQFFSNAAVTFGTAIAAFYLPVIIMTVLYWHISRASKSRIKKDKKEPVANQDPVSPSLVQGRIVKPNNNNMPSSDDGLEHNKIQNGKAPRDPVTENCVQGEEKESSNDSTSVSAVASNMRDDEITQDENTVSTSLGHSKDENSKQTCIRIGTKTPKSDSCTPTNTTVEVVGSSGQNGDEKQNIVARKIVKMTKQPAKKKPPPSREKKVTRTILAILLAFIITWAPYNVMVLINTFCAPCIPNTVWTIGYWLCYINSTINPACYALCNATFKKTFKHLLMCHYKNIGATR

T1 sequence (Q9JI35 whole entry): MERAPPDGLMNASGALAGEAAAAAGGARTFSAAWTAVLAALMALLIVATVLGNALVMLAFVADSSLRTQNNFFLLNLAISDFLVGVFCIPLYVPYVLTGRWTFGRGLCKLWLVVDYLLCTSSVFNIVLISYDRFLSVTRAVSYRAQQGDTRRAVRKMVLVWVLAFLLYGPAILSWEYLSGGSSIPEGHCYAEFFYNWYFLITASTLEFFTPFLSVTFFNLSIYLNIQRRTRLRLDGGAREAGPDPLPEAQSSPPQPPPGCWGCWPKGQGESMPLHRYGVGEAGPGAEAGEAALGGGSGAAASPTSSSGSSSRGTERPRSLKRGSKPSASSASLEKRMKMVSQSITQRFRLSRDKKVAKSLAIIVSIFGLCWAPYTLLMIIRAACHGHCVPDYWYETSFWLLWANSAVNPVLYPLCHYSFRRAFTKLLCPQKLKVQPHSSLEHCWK

Ki (H3 receptor) [nM]	Ki [1] [nM]	Compound
18	0.17	CCN(CC)CCOc1ccc(CN2CCC(C3CCN(Cc4ccc(C(=O)NC(C)C)cc4)CC3)CC2)cc1 [Compound 1]
140	0.01	CCCS(=O)(=O)N1CCC(N2CCC(C3(c4ccc(S(=O)(=O)c5ccc6c(c5)OCO6)cc4)OCCO3)CC2)CC1 [Compound 2]
500	0.125	O=C(NCC1CC1)c1ccc(CN2CCC(C3CCN(Cc4ccc(C(=O)NCC5CC5)cc4)CC3)CC2)cc1 [Compound 3]
620	3.4	c1ccc(CN2CCC(C3CCN(Cc4ccccc4)CC3)CC2)cc1 [Compound 4]
430	2.6	CC(C)(C)OC(=O)N1CCC(C2CCN(Cc3ccc(S(=O)(=O)c4ccc5c(c4)OCO5)cc3)CC2)CC1 [Compound 5]
160	1.2	Cc1ccccc1C(=O)N1CCC(C2CCN(Cc3ccc(S(=O)(=O)c4ccc5c(c4)OCO5)cc3)CC2)CC1 [Compound 6]
22	0.07	CCN(CC)CCOc1ccc(CN2CCC(C3CCN(Cc4ccc(S(=O)(=O)c5ccc6c(c5)OCO6)cc4)CC3)CC2)cc1 [Compound 7]
6	0.05	CN(C)CCCOc1ccc(CN2CCC(C3CCN(Cc4ccc(S(=O)(=O)c5ccc6c(c5)OCO6)cc4)CC3)CC2)cc1 [Compound 8]
290	0.22	O=C(NCC1CC1)c1ccc(CN2CCC(C3CCN(Cc4ccc(S(=O)(=O)c5ccc6c(c5)OCO6)cc4)CC3)CC2)cc1 [Compound 9]
15	0.019	CN(C)CCCOc1ccc(CN2CCC(N3CCC(C(=O)c4ccc(S(=O)(=O)c5ccc6c(c5)OCO6)cc4)CC3)CC2)cc1 [Compound 10]
8	0.018	CCN(CC)CCOc1ccc(CN2CCC(N3CCC(C(=O)c4ccc(S(=O)(=O)c5ccc6c(c5)OCO6)cc4)CC3)CC2)cc1 [Compound 11]
170	4.8	CCCCOc1ccc(CN2CCC(N3CCC(C(=O)c4ccc(S(=O)(=O)c5ccc6c(c5)OCO6)cc4)CC3)CC2)cc1 [Compound 12]
12	0.8	CN(C)CCCOc1ccc(CN2CCC(N3CCC(C4(c5ccc(S(=O)(=O)c6ccc7c(c6)OCO7)cc5)OCCO4)CC3)CC2)cc1 [Compound 13]
2	0.7	CCN(CC)CCOc1ccc(CN2CCC(N3CCC(C4(c5ccc(S(=O)(=O)c6ccc7c(c6)OCO7)cc5)OCCO4)CC3)CC2)cc1 [Compound 14]
43	0.17	CCCCOc1ccc(CN2CCC(N3CCC(C4(c5ccc(S(=O)(=O)c6ccc7c(c6)OCO7)cc5)OCCO4)CC3)CC2)cc1 [Compound 15]
